# Values joined by “and” are separate entries in the source; they are usually repeats but may differ in a detail not shown here. Equal values may be shown once.
# Tests used:
# 5HT4 = target: T1, 5HT4 (Homo sapiens, UniProt Q13639); experiment: β-arrestin2 recruitment (Tango); assay type: cell-based; conditions: Fig_S10n; for β-arrestin2 recruitment response in presence of serotonin (replicate values): +10μM serotonin; for β-arrestin2 recruitment response (dose-response source data, replicate values): drug alone
# T1 construct: expressed in transfected cells; host or cells: HTLA cells expressing TEV-fused β-arrestin2
# [1] = test system: serotonin receptor of Fig_S10h (subtype not given); experiment: β-arrestin2 recruitment (Tango), agonist activity, source data Fig_S10h; assay type: cell-based, human; conditions: drug alone
# T1 sequence (Q13639 whole entry, the tested form may be a part): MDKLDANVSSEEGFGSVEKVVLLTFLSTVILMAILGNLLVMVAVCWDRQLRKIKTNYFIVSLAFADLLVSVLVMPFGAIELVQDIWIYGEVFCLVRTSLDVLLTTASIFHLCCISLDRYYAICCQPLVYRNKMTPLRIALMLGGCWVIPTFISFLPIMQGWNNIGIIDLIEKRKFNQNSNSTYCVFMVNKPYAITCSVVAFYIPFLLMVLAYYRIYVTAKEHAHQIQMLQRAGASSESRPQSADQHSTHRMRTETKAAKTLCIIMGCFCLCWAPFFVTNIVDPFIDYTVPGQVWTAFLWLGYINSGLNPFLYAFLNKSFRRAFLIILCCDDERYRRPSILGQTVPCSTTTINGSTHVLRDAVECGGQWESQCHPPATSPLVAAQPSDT
smiles,measurement,setting,value
CCOc1cccc2cc([C@@H](C)NCC3(O)CCCCC3)oc12 [O4RE6],β-arrestin2 recruitment response in presence of serotonin (replicate values),5HT4; Log[Drug] -6.52,61.872
same,"β-arrestin2 recruitment response (dose-response source data, replicate values)",5HT4; Log[Drug] -6.52,1.914
same,β-arrestin2 recruitment response in presence of serotonin (replicate values),5HT4; Log[Drug] -7,64.7524 and 57.0569 and 68.7411 and 71.876 and 66.1156 and 64.7823 and 62.9846 and 72.5854 and 58.9141
same,"β-arrestin2 recruitment response (dose-response source data, replicate values)",5HT4; Log[Drug] -7,0.4762 and 0.5315 and 0.3036 and 1.47 and 0.6917 and 0.6083 and -0.2126 and 0.07923 and 0.2126
same,β-arrestin2 recruitment response in presence of serotonin (replicate values),5HT4; Log[Drug] -7.52,67.3937 and 54.3976 and 65.3292 and 58.7354 and 62.4375 and 61.2125 and 60.3264 and 67.443 and 67.076
same,"β-arrestin2 recruitment response (dose-response source data, replicate values)",5HT4; Log[Drug] -7.52,0.4824 and 0.6557 and 1.0009 and 1.276 and 0.8198 and 0.6438 and -0.1108 and 0.08408 and -0.1463
same,β-arrestin2 recruitment response in presence of serotonin (replicate values),5HT4; Log[Drug] -8,65.8409 and 63.3895 and 63.0679 and 59.9271 and 55.4104 and 64.9198 and 50.9713 and 49.466 and 77.9372
same,"β-arrestin2 recruitment response (dose-response source data, replicate values)",5HT4; Log[Drug] -8,0.2279 and 0.2043 and 0.8233 and 0.8469 and 0.6458 and 2.318 and -0.27 and -0.308 and 0.6993
same,β-arrestin2 recruitment response in presence of serotonin (replicate values),5HT4; Log[Drug] -8.52,63.4237 and 62.7587 and 63.6242 and 63.1469 and 61.3792 and 61.5198 and 57.3708 and 61.2149 and 65.253
same,"β-arrestin2 recruitment response (dose-response source data, replicate values)",5HT4; Log[Drug] -8.52,1.195 and 1.746 and 0.9636 and 0.6083 and 1.193 and 1.147 and -0.3056 and 0.2118 and 0.0477
same,β-arrestin2 recruitment response in presence of serotonin (replicate values),5HT4; Log[Drug] -9,73.1291 and 64.8356 and 60.6203 and 52.4417 and 65.9365 and 64.5823 and 63.8148 and 65.7381 and 55.6869
same,"β-arrestin2 recruitment response (dose-response source data, replicate values)",5HT4; Log[Drug] -9,0.9748 and 0.4464 and 1.275 and 1.439 and 1.359 and 0.525 and -0.3751 and 0.5028 and -0.1156
same,β-arrestin2 recruitment response in presence of serotonin (replicate values),5HT4; Log[Drug] -9.52,69.2832 and 67.6123 and 68.9932 and 55.1 and 63.4344 and 64.601 and 58.9998 and 66.4964 and 65.7267
same,"β-arrestin2 recruitment response (dose-response source data, replicate values)",5HT4; Log[Drug] -9.52,0.9748 and 1.052 and 0.4042 and 0.901 and 0.7365 and 0.6104 and 1.02 and 0.3484 and -0.01698
same,β-arrestin2 recruitment response in presence of serotonin (replicate values),5HT4; Log[Drug] -10,76.2485 and 62.2675 and 64.5873 and 59.8927 and 56.6667 and 68.1219 and 68.0316 and 61.4033 and 67.9677
same,"β-arrestin2 recruitment response (dose-response source data, replicate values)",5HT4; Log[Drug] -10,0.629 and 0.5812 and 0.457 and 0.6927 and 0.4885 and 0.9823 and -0.2005 and 5.06 and 0.3864
same,β-arrestin2 recruitment response in presence of serotonin (replicate values),5HT4; Log[Drug] -10.52,75.7189 and 64.7332 and 70.6094 and 73.5573 and 66.3448 and 67.3771 and 66.768 and 70.3542 and 67.3953
same,"β-arrestin2 recruitment response (dose-response source data, replicate values)",5HT4; Log[Drug] -10.52,0.4328 and 0.1577 and 0.7768 and 0.8562 and 0.5281 and 1.361 and 0.08327 and -0.03395 and 0.2724
same,β-arrestin2 recruitment response in presence of serotonin (replicate values),5HT4; Log[Drug] -11,74.7968 and 75.6357 and 68.127 and 60.4448 and 57.1219 and 66.626 and 65.7178 and 87.5009 and 57.2593
same,"β-arrestin2 recruitment response (dose-response source data, replicate values)",5HT4; Log[Drug] -11,0.5557 and 0.7004 and 0.8308 and 2.567 and 0.5635 and 1.27 and -0.1415 and -0.4034 and 0.4066
same,β-arrestin2 recruitment response in presence of serotonin (replicate values),5HT4; Log[Drug] -11.52,97.2705 and 89.1683 and 77.1935 and 74.2448 and 65.2792 and 55.4573 and 62.6402 and 78.6163 and 88.7629
same,"β-arrestin2 recruitment response (dose-response source data, replicate values)",5HT4; Log[Drug] -11.52,0.4266 and 1.996 and 0.1267 and 1.773 and 0.5229 and 1.651 and 0.05093 and 0.01859 and 0.1746
same,β-arrestin2 recruitment response in presence of serotonin (replicate values),5HT4; Log[Drug] -12,118.392 and 99.4834 and 97.7219 and 77.2104 and 74.4021 and 77.9375 and 116.996 and 81.757 and 92.5544
same,"β-arrestin2 recruitment response (dose-response source data, replicate values)",5HT4; Log[Drug] -12,0.9382 and 1.326 and 1.032 (2×) and 0.8271 and 0.8656 and -0.4301 and -0.07599 and 0.5061
same,"response, single replicates of the concentration-response curve",[1]; Log[Drug] -6.52,15.4121
same,"response, single replicates of the concentration-response curve",[1]; Log[Drug] -7,-9.449 and 43.8621 and 11.6211 and 7.472 and -0.3671 and 7.014 and 9.027 and 5.062 and -2.318
same,"response, single replicates of the concentration-response curve",[1]; Log[Drug] -7.52,25.9192 and 27.8404 and -0.5503 and -21.2455 and 4.046 and 14.5317 and -8.748 and -4.947 and 16.7319
same,"response, single replicates of the concentration-response curve",[1]; Log[Drug] -8,2.165 and -8.081 and -1.811 and 5.963 and -1.683 and -1.147 and 3.049 and 7.499 and 13.7356
same,"response, single replicates of the concentration-response curve",[1]; Log[Drug] -8.52,-5.579 and -1.044 and 8.071 and 25.4179 and -14.3504 and -12.3048 and 9.427 and 1.454 and -6.523
same,"response, single replicates of the concentration-response curve",[1]; Log[Drug] -9,17.8788 and 11.459 and -7.1 and 19.8102 and 1.922 and -5.946 and -1.184 and 8.604 and 6.934
same,"response, single replicates of the concentration-response curve",[1]; Log[Drug] -9.52,-10.7926 and -6.0806 and -1.59 and 6.349 and 24.5524 and -6.94 and -0.1308 and 12.3434 and 15.3584
same,"response, single replicates of the concentration-response curve",[1]; Log[Drug] -10,15.7757 and 1.351 and 2.221 and 21.6342 and 13.8951 and -8.936 and 0.1938 and 1.6143 and 8.83
same,"response, single replicates of the concentration-response curve",[1]; Log[Drug] -10.52,10.0241 and -11.69 and 6.115 and -3.242 and -2.048 and 6.485 and 2.339 and 5.815 and 3.938
same,"response, single replicates of the concentration-response curve",[1]; Log[Drug] -11,9.617 and 2.873 and 5.027 and 13.6018 and -3.471 and 16.985 and 36.4073 and 2.626 and 1.374
same,"response, single replicates of the concentration-response curve",[1]; Log[Drug] -11.52,17.0328 and 12.1627 and -8.18 and -20.709 and -16.6678 and 9.0957 and -0.3236 and 13.7874 and 20.984
same,"response, single replicates of the concentration-response curve",[1]; Log[Drug] -12,-3.669 and 13.7874 and -0.578 and 18.9662 and 35.9393 and -1.197 and 0.5748 and 17.3951 and 3.035

# Source: publication PMC7044277 (Nature Communications, 2020)
